# Test results published in a melting point compilation (Tetko et al.).
row,SMILES,melting point [°C]
1,CSc1nc(NC(C)=O)n(C(C)=O)n1,226 to 228
2,NC(=S)C1CCCO1 (stereo unspecified),80 to 82
3,O=C(O)CCn1cc[nH]c(=O)c1=O,239 to 241
4,CN(C)c1ccc(C=C(C#N)C(=O)O)cc1,224 to 226
5,NCc1ncc(-c2ccccc2)[nH]1,142 to 144
6,CC(C)(C(O)c1ccc(Br)cc1)[N+](=O)[O-] (stereo unspecified),106 to 108
7,Nc1cnccc1SCCCO,71 to 73
8,Nn1c(S)nnc1C1CCOC1 (stereo unspecified),116 to 118
9,CC(C)(C)OC(=O)N1CCN(C(=O)CN)CC1,95 to 97
10,COCc1cc(Cl)n2ncnc2n1,104 to 106
11,COc1cc(C(=O)O)cc(Cl)c1OCC(N)=O,211 to 213
12,CCSc1ccc(C(=O)O)cn1,123 to 125
13,Cc1nc(Cl)c2c3c(sc2n1)CCC3,91 to 93
14,COC(=O)Nc1ccc(CN)cc1,103 to 105
15,COc1cc(Cl)c(Cl)cc1C(=O)O,148 to 150
16,CNC(=O)NCC(=O)O,138 to 140
17,O=C(O)C(Oc1ccccc1)c1ccccc1 (stereo unspecified),103 to 105
18,O=Cc1cn(-c2ccccc2)nc1-c1ccc(-c2nn(-c3ccccc3)cc2C=O)cc1,271 to 273
19,NN=c1ccc(C(N)=O)n[nH]1,251 to 253

row,SMILES,melting point [°C]
1,COc1ccc(CC(=O)NCc2ccc(C(=O)O)cc2)cc1,229 to 231
2,CC(C)(C)OC(=O)N1CCC(CC(=O)O)(C(=O)O)C1 (stereo unspecified),180 to 182
3,OC(O)c1nc(-c2ccccc2)no1,103 to 105
4,CC(NC(=O)OC(C)(C)C)c1ccc(-c2cccc(C#N)c2)cc1 (stereo unspecified),103 to 105
5,Cc1ccc(C=CCC(=O)O)cc1,105 to 107
6,Cc1cccc(C(=O)Nc2cccc(O)c2)n1,177 to 179
7,CCc1onc(C)c1C(=O)O,126 to 128
8,O=[N+]([O-])c1cccc(-c2cnc(CCCl)o2)c1,73 to 75
9,N#CC1(C(=O)O)CCC1,64 to 66
10,CN(C)CC(C)(C)CNC(N)=S,121 to 123
11,COCCn1c(S)nnc1-c1ccccc1,133 to 135
12,COC(=O)CCCc1nnc(N)s1,149 to 151
13,COCCn1c(C(=O)O)cc2ccccc21,139 to 141
14,CCc1nc2ccccc2n1C1CCNCC1,99 to 101
15,CCN1CCNC1=O,75 to 77
16,O=C(O)CCCS(=O)c1ccc(Br)cc1 (stereo unspecified),121 to 123
17,COc1cc(C(C[N+](=O)[O-])c2c[nH]c3ccccc23)ccc1O (stereo unspecified),115 to 117
18,Cc1nn(Cc2c(Cl)cccc2Cl)c(Cl)c1C(=O)O,187 to 189
19,CC1CCC(CC(=O)O)CC1 (stereo unspecified),58 to 60

row,SMILES,melting point [°C]
1,NNC(=O)Nc1c(Cl)cc(Cl)cc1Cl,229 to 231
2,CC(C)(C)OC(=O)NC1(C#N)CCCC1,106 to 108
3,CC(C)C1=NN(C)C(=O)C1,110 to 112
4,O=C(O)CNC(=O)NCc1ccco1,159 to 161
5,CC(C)Oc1ccc(C(=O)O)cn1,122 to 124
6,COc1cc(NC(=O)CCCl)cc(OC)c1OC,117 to 119
7,N=C(N)NN=Cc1ccccc1,179 to 181
8,CCOc1ccc(C(=O)C(C)Cl)cc1 (stereo unspecified),62 to 64
9,NC(=S)Nc1ccc(Cl)nc1,182 to 184
10,Cc1cc(C(=O)O)c(O)c(S(N)(=O)=O)c1,218 to 220
11,O=c1[nH]c(CCl)nc2c(Br)cc(Br)cc12,248 to 252
12,NC(=S)NCc1cccc(C(F)(F)F)c1,97 to 99
13,CN1CCN(CCC(=O)NN)CC1,87 to 89
14,Cc1nnc(Cl)c(C#N)c1C,61 to 63
15,O=[N+]([O-])c1ccc(S)nc1,169 to 171
16,O=C(O)c1cnc(OCC(F)(F)F)c(Cl)c1,162 to 164
17,CC(c1ccccc1)C(O)C(=O)O (stereo unspecified),115 to 117
18,CCOc1nnc(-c2ccccc2)n1-c1ccccc1,154 to 156
19,O=C(O)c1cc(CO)on1,129 to 131

# The remaining lines, values ahead:
row,melting point [°C],SMILES
1,146 to 148,NC(=O)CCC(NC(=O)CCC1CCCC1)C(=O)O (stereo unspecified)
2,329 to 331,Cc1nc2c(cnn2-c2ccc(F)cc2)c(=O)[nH]1
3,202 to 204,COc1ccc(/C=C/C(=O)O)cc1S(=O)(=O)NC(C)C
4,188 to 190,NCc1ccccc1NS(=O)(=O)c1ccccc1
5,144 to 146,Nc1nc(-c2cc(Cl)sc2Cl)cs1
6,189 to 191,Nc1n[nH]c2c(Cl)cccc12
7,64 to 66,CC(C)(C)c1nn(Cc2ccccc2)cc1C=O
8,292 to 294,O=C(O)c1ccccc1C(=O)Nc1ccc(-c2ccccc2)cc1
9,149 to 151,N#Cc1ccc2c(c1)C=CS2(=O)=O
10,112 to 114,Clc1nc(C2CC2)nc2sc3c(c12)CCCC3
11,221 to 223,O=c1[nH]c(CO)nc2ccccc12
12,149 to 151,Nc1ccc(N2CCOC2=O)cc1
13,235 to 237,Cc1nc(-c2cccc(N)c2)[nH]c1C
14,190 to 192,Nc1nc2c(s1)COc1ccccc1-2
15,230 to 232,CS(=O)(=O)N1CCc2cc(C(=O)O)ccc21
16,69 to 71,O=Cc1ccc(Oc2ccc(Cl)cc2[N+](=O)[O-])cc1
17,67 to 69,Oc1ccc(Cl)cc1C(F)(F)F
18,81 to 83,O=C(OCc1ccccc1)N1CCCC(CS(=O)(=O)Cl)C1 (stereo unspecified)
19,100 to 102,NNC(=O)CSc1ccc(Cl)cc1
20,118 to 120,NS(=O)(=O)Cc1ccc(CO)cc1
21,209 to 211,O=C(O)c1c[nH]c2cccc(F)c12

row,melting point [°C],SMILES
1,110 to 112,Nc1nc(CN2CCN(Cc3ccccc3)CC2)cs1
2,96 to 98,Nc1cc(C2CC2)nc2ccc(Cl)cc12
3,66 to 70,COC(=O)c1cc(Br)ccc1S(=O)(=O)Cl
4,170 to 172,Cn1c(CO)nc2cc(C(F)(F)F)ccc21
5,118 to 120,Cc1cc([N+](=O)[O-])ccc1NC(=O)CCl
6,84 to 86,CCN(CC)S(=O)(=O)c1cccc(N)c1
7,188 to 190,Nc1ccc2[nH]c(-c3cc(F)ccc3F)nc2c1
8,147 to 149,O=C(O)c1occc1-c1ccc(F)cc1
9,260 to 262,Sc1nnc(CN2CCCC2)n1-c1ccc(Cl)cc1
10,129 to 131,CC(C)S(=O)(=O)c1ccc(Cl)c(C(=O)O)c1
11,139 to 141,COc1cc(F)c([N+](=O)[O-])cc1OC
12,58 to 60,Nc1cccc(Sc2ccc(Cl)cc2)c1
13,90 to 92,O=c1c(Cl)nccn1C1CC1
14,129 to 131,NS(=O)(=O)c1cccc(F)c1
15,141 to 143,NC(=O)C1COc2ccccc2O1 (stereo unspecified)
16,51 to 53,NCc1ccc(Oc2ccc(F)cc2)nc1
17,151 to 153,COCCn1c(N)c(NCc2ccccc2)c(=O)[nH]c1=O
18,274 to 276,O=C(O)c1ccc(NC(=O)C2CC2)cc1
19,74 to 76,Nc1cc2c(cc1Sc1ccccc1)OCCO2
20,169 to 171,CC(C)(C)C1CCc2sc(C(=O)O)cc2C1 (stereo unspecified)
21,145 to 154,COc1ccc(NS(=O)(=O)c2cc(N)ccc2N2CCCCC2)cc1

row,melting point [°C],SMILES
1,107 to 109,Cc1cccc(C2(C(=O)O)CC2)c1
2,129 to 131,NCc1cccnc1N1CCC(C(N)=O)CC1
3,116 to 118,NC(=O)CCC1CCCCC1
4,105 to 107,Nc1nonc1-c1ccc(Cl)cc1Cl
5,139 to 141,CCCN1CCc2c(sc(N)c2C(N)=O)C1
6,113 to 115,Cc1cc(Cl)cc2cc(C#N)oc12
7,173 to 175,COc1ccc(Cn2c(N)nc3ccccc32)cn1
8,128 to 130,CC(=O)Nc1ccc(C(=O)CCl)c(F)c1
9,61 to 63,ON=C1CCN(Cc2ccccn2)CC1
10,250 to 252,O=C(O)c1ccc2c(=O)[nH][nH]c(=O)c2c1
11,80 to 82,CCc1nnsc1C(=O)NC1CCCCC1
12,174 to 176,Nc1cc(F)ccc1N1C(=O)C2CCCCC2C1=O (stereo unspecified)
13,167 to 169,Nc1nnc(Cc2ccc(Cl)cc2)o1
14,55 to 57,CC(Cl)c1nnc(-c2ccc(Cl)cc2Cl)o1 (stereo unspecified)
15,131 to 133,Cc1nn(-c2ccc(Cl)cc2)c(C)c1C=O
16,167 to 169,CC(C)N1CCc2c(sc(N)c2C#N)C1
17,132 to 134,c1ccc(CNc2ccc(N3CCOCC3)cc2)nc1
18,184 to 186,Cc1cc(Cl)nc(-c2ccc([N+](=O)[O-])cc2)n1
19,290 to 292,O=C(O)c1ccc2nnc(C3CC3)n2c1
20,69 to 71,COC(=O)c1cc2ccccc2n1C
21,279 to 281,O=C(O)c1ccc(=O)n(-c2cccc(Br)c2)c1

row,melting point [°C],SMILES
1,143 to 145,O=C(O)c1cc2ccc(C(F)(F)F)cc2[nH]1
2,52 to 54,Nc1cc(C2CC2)no1
3,264 to 266,O=C(O)c1ccc2c(c1)-c1ccccc1C2
4,81 to 83,O=S(=O)(Nc1ccccc1Br)N1CCOCC1
5,165 to 167,NC(=NO)c1ccc(N2CCCCC2)nc1
6,258 to 260,O=C(O)C1CCCN(C(=O)c2ccncc2)C1 (stereo unspecified)
7,211 to 213,COc1ccc(C(=O)O)cc1S(=O)(=O)N1CCCc2ccccc21
8,156 to 158,CC(=O)c1nc2ccc(C)cc2[nH]1
9,165 to 167,CCc1cccc(CC)c1Nc1nnc(S)s1
10,109 to 111,Nc1cc(=O)[nH]n1-c1ccccc1
11,129 to 131,CCCNC(=O)C1CNc2ccccc2O1 (stereo unspecified)
12,174 to 176,Nc1nc(CCl)nc2sc3c(c12)CCCC3
13,77 to 79,Fc1cccc2cc(I)cnc12
14,251 to 253,O=C(O)c1ccc(-c2ccc([N+](=O)[O-])cc2Cl)o1
15,158 to 160,CC1=NN(c2ccc(Cl)c(Cl)c2)C(=O)C1
16,144 to 146,Cc1nn(-c2ccccc2)c(C(F)(F)Cl)c1C(=O)O
17,188 to 203,O=C(O)Cn1c(SC(F)F)nc2ccccc21
18,225 to 227,O=C(O)c1cc(=O)n(-c2ccc([N+](=O)[O-])cc2)[nH]1
19,89 to 91,COc1cc(C=O)ccc1[N+](=O)[O-]
20,125 to 127,COC(=O)c1ccccc1-n1ncc(Cl)c(Cl)c1=O
21,204 to 206,COCCNc1ccc([N+](=O)[O-])cc1C(=O)O
